According to US11732256B2, “Multivalent glycopeptides that tightly bind to target proteins” (Brandeis University, priority 2013, dated 2023):
*1 amine or outer side, *2 acyl side, *3 side chain or, on linkers, in order; H or OH if unused. [ ]: non-standard residue; d: D form. The star is where a group is joined. X1 = O=C([C@H](CCc1cn(C2CCC(OC3O[C@H](CO[C@H]4O[C@H](CO[C@H]5O[C@H](CO)[C@@H](O)[C@H](O)[C@@H]5O[C@H]5O[C@H](CO)[C@@H](O)[C@H](O)[C@@H]5O)[C@@H](O)[C@H](O[C@H]5O[C@H](CO)[C@@H](O)[C@H](O)[C@@H]5O[C@H]5O[C@H](CO)[C@@H](O)[C@H](O)[C@@H]5O)[C@@H]4O)[C@@H](O)[C@H](O[C@H]4O[C@H](CO)[C@@H](O)[C@H](O)[C@@H]4O[C@H]4O[C@H](CO)[C@@H](O)[C@H](O)[C@@H]4O[C@H]4O[C@H](CO)[C@@H](O)[C@H](O)[C@@H]4O)[C@@H]3O)CC2)nn1)N[*:1])[*:2]; For = O=C*

Test system: HIV broadly neutralizing antibody 2G12
Assay: Radioactive 2G12-glycopeptide binding assay with protein G magnetic beads (binding curve and KD determination)
Experimental: The sequences were obtained by cloning non-selected library DNA. […] FIG. 9B is an SDS-PAGE analysis of the click reaction of the non-selected peptides. Both peptides were transcribed and translated from PCR-amplified DNA in Pure System that contains 0.02 mg/mL T7 RNA polymerase and additional 1 mM each NTP. The peptides were labeled with 3H-histidine and the bands were visualized by fluorography.
For round 10 winners, 0.12-0.2 nM radioactive glycopeptides were incubated with 0, 0.25, 0.5, 1, 2, 4, 8, 16, 32 or 64 nM 2G12 in 40 μL of selection buffer at room temperature for 1 h. Then, the solution was added to 0.12 mg of pre-equilibrated Dynabeads Protein G and tumbled at room temperature for 30 min. The supernatant was removed and the beads were washed with 3×40 μL of selection buffer. The radioactivities of the supernatant and wash solutions were measured by liquid scintillation counting as unbound fractions. […] The beads were resuspended in 40 μL of selection buffer, heated at 70° C. for 30 min to elute the bound glycopeptides, chilled on ice for 5 min, and tumbled at room temperature for 10 min. The supernatant was removed, and the beads were washed with 40 μL of selection buffer and resuspended in 40 μL of selection buffer. The radioactivities of these solutions and suspensions were measured by liquid scintillation counting separately and the values were combined as apparent bound fractions. […] All experiments were done at least in triplicate. KDs were calculated as described in the footnote of Table 4 (below).

Row | Molecule | Tolerance of Cys substitutions for 2G12 binding (Cys mutated to Ser) | Fmax [%] (Table 6 mutants/truncations, radioactive binding assay)
1 | CC[C@H](C)[C@H](NC(=O)[C@H](CCC(N)=O)NC(=O)[C@H](CCCCN)NC(=O)[C@H](CC(C)C)NC(=O)[C@H](Cc1c[nH]cn1)NC(=O)[C@H](CC(C)C)NC(=O)[C@@H](NC(=O)[C@H](CC(=O)O)NC(=O)[C@H](CCc1cn(C2CCC(OC3O[C@H](CO[C@H]4O[C@H](CO[C@H]5O[C@H](CO)[C@@H](O)[C@H](O)[C@@H]5O[C@H]5O[C@H](CO)[C@@H](O)[C@H](O)[C@@H]5O)[C@@H](O)[C@H](O[C@H]5O[C@H](CO)[C@@H](O)[C@H](O)[C@@H]5O[C@H]5O[C@H](CO)[C@@H](O)[C@H](O)[C@@H]5O)[C@@H]4O)[C@@H](O)[C@H](O[C@H]4O[C@H](CO)[C@@H](O)[C@H](O)[C@@H]4O[C@H]4O[C@H](CO)[C@@H](O)[C@H](O)[C@@H]4O[C@H]4O[C@H](CO)[C@@H](O)[C@H](O)[C@@H]4O)[C@@H]3O)CC2)nn1)NC=O)[C@@H](C)O)C(=O)NCC(=O)NCC(=O)N[C@@H](CCc1cn(C2CCC(OC3O[C@H](CO[C@H]4O[C@H](CO[C@H]5O[C@H](CO)[C@@H](O)[C@H](O)[C@@H]5O[C@H]5O[C@H](CO)[C@@H](O)[C@H](O)[C@@H]5O)[C@@H](O)[C@H](O[C@H]5O[C@H](CO)[C@@H](O)[C@H](O)[C@@H]5O[C@H]5O[C@H](CO)[C@@H](O)[C@H](O)[C@@H]5O)[C@@H]4O)[C@@H](O)[C@H](O[C@H]4O[C@H](CO)[C@@H](O)[C@H](O)[C@@H]4O[C@H]4O[C@H](CO)[C@@H](O)[C@H](O)[C@@H]4O[C@H]4O[C@H](CO)[C@@H](O)[C@H](O)[C@@H]4O)[C@@H]3O)CC2)nn1)C(=O)N1CCC[C@H]1C(=O)N[C@@H](CC(N)=O)C(=O)N[C@@H](CS)C(=O)N[C@H](C(=O)N[C@H](C(=O)N[C@@H](CCC(N)=O)C(=O)N[C@@H](CCC(N)=O)C(=O)N[C@@H](CC(=O)O)C(=O)N[C@H](C(=O)N[C@@H](CCCNC(=N)N)C(=O)N[C@@H](CCc1cn(C2CCC(OC3O[C@H](CO[C@H]4O[C@H](CO[C@H]5O[C@H](CO)[C@@H](O)[C@H](O)[C@@H]5O[C@H]5O[C@H](CO)[C@@H](O)[C@H](O)[C@@H]5O)[C@@H](O)[C@H](O[C@H]5O[C@H](CO)[C@@H](O)[C@H](O)[C@@H]5O[C@H]5O[C@H](CO)[C@@H](O)[C@H](O)[C@@H]5O)[C@@H]4O)[C@@H](O)[C@H](O[C@H]4O[C@H](CO)[C@@H](O)[C@H](O)[C@@H]4O[C@H]4O[C@H](CO)[C@@H](O)[C@H](O)[C@@H]4O[C@H]4O[C@H](CO)[C@@H](O)[C@H](O)[C@@H]4O)[C@@H]3O)CC2)nn1)C(=O)N[C@H](C(=O)N[C@@H](CO)C(=O)N[C@H](C(=O)N1CCC[C@H]1C(=O)N[C@@H](Cc1ccc(O)cc1)C(=O)N[C@H](C(=O)N[C@@H](Cc1ccc(O)cc1)C(=O)N[C@H](C(=O)N[C@@H](Cc1c[nH]c2ccccc12)C(=O)N1CCC[C@H]1C(=O)NCC(=O)N[C@@H](CO)C(=O)NCC(=O)N[C@@H](CO)C(=O)N[C@@H](CC(C)C)C(=O)NCC(=O)N[C@@H](Cc1c[nH]cn1)C(=O)N[C@@H](Cc1c[nH]cn1)C(=O)N[C@@H](Cc1c[nH]cn1)C(=O)N[C@@H](Cc1c[nH]cn1)C(=O)N[C@@H](Cc1c[nH]cn1)C(=O)N[C@@H](Cc1c[nH]cn1)C(=O)N[C@@H](CCCNC(=N)N)C(=O)N[C@@H](CC(=O)O)C(=O)N[C@@H](Cc1ccc(O)cc1)C(=O)N[C@@H](CCCCN)C(=O)N[C@@H](CC(=O)O)C(=O)N[C@@H](CC(=O)O)C(=O)N[C@@H](CC(=O)O)C(=O)N[C@@H](CC(=O)O)C(=O)N[C@@H](CCCCN)C(=O)O)[C@@H](C)O)[C@@H](C)O)[C@@H](C)CC)[C@@H](C)O)C(C)C)[C@@H](C)O)[C@@H](C)CC (some centres unmarked) [Clone 10F3, XDTLHLKQIGGXPNCITQQDVRXTSIPYTYTWP] | tolerated | –
2 | For-[X1]PNCITQQDVR[X1]TSIPYTYTWPGSGSLGHHHHHHRDYKDDDDK-OH [Clone 10F3-Δ11, XPNCITQQDVRXTSIPYTYTWP] | – | 32
